Measured values as given in PubChem BioAssay AID248 (DTP/NCI, 2004).
Where “and” joins values, the source holds several entries; their conditions need not be identical. Equal entries are not always repeated. Toxic doses and inconclusive results are not listed. Cut-off read from the data, not from the text of the source: active = T/C of 150% or more; inactive = T/C below 125%.

System: L1210 leukemia ip in BDF1 mice, survival T/C
Experiment: NCI In Vivo Anticancer Drug Screen. Data for tumor model L1210 Leukemia (intraperitoneal) in B6D2F1 (BDF1) mice
Conditions: endpoint: mean survival time, higher = longer survival
In short: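 Read-out is survival time, reported as the treated-group measurement over the vehicle-control measurement.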

[1] = dose: 100.0 mg/kg/injection, schedule: Q01DX001 (ip), vehicle: saline
[2] = dose: 100.0 mg/kg/injection, schedule: Q04DX003 (ip), vehicle: saline
[3] = dose: 200.0 mg/kg/injection, schedule: Q01DX001 (ip), vehicle: saline
[4] = dose: 200.0 mg/kg/injection, schedule: Q04DX003 (ip), vehicle: saline
[5] = dose: 400.0 mg/kg/injection, schedule: Q01DX001 (ip), vehicle: saline
[6] = dose: 400.0 mg/kg/injection, schedule: Q04DX003 (ip), vehicle: saline
[7] = dose: 100.0 mg/kg/injection, schedule: Q04DX003 (ip), vehicle: saline with Tween-80
[8] = dose: 200.0 mg/kg/injection, schedule: Q04DX003 (ip), vehicle: saline with Tween-80
[9] = dose: 400.0 mg/kg/injection, schedule: Q04DX003 (ip), vehicle: saline with Tween-80
[10] = dose: 100.0 mg/kg/injection, schedule: Q04DX002 (ip), vehicle: Klucel (hydroxypropylcellulose) (HPC)
[11] = dose: 200.0 mg/kg/injection, schedule: Q04DX002 (ip), vehicle: Klucel (hydroxypropylcellulose) (HPC)
[12] = dose: 25.0 mg/kg/injection, schedule: Q01DX009 (ip), vehicle: saline with Tween-80
[13] = dose: 50.0 mg/kg/injection, schedule: Q01DX009 (ip), vehicle: saline with Tween-80
[14] = dose: 100.0 mg/kg/injection, schedule: Q01DX009 (ip), vehicle: saline with Tween-80
[15] = dose: 200.0 mg/kg/injection, schedule: Q01DX009 (ip), vehicle: saline with Tween-80
[16] = dose: 400.0 mg/kg/injection, schedule: Q01DX009 (ip), vehicle: saline with Tween-80

Measured: T/C

CCC(C)(O)C#CC(C)(O)CC (configuration not stated)
inactive: [1] 100 % of control | dose: 100.0 mg/kg/injection, schedule: Q01DX009 (ip), vehicle: saline 101 % of control | [2] 105 % of control | [3] 106 % of control | dose: 200.0 mg/kg/injection, schedule: Q01DX009 (ip), vehicle: saline 100 % of control | [4] 105 % of control | [5] 102 % of control | [6] 100 % of control

c1cc[c]([GeH]([c]2ccccc2)[c]2ccccc2)cc1
inactive: dose: 64.0 mg/kg/injection, schedule: Q04DX002 (ip), vehicle: saline with Tween-80 91 % of control | dose: 160.0 mg/kg/injection, schedule: Q04DX002 (ip), vehicle: saline with Tween-80 94 % of control | dose: 400.0 mg/kg/injection, schedule: Q04DX002 (ip), vehicle: saline with Tween-80 97 % of control

CCCCCCCCCCCCCCCCNS(=O)(=O)c1ccc(S(=O)(=O)F)cc1
inactive: [7] 94 % of control | [8] 94 % of control | [9] 89 % of control

CC1=C(C)C2(C)C1(C)C1(C)NN=NC12c1ccccc1 (configuration not stated)
inactive: [7] 95 % of control | [8] 91 % of control | [9] 101 % of control

O=C(c1ccccc1CO)N1CCCCC1
inactive: [10] 112 % of control | [11] 105 % of control

CCCN(CCC)C(=O)CCN1CC1
inactive: dose: 5.0 mg/kg/injection, schedule: Q01DX001 (ip), vehicle: carboxymethylcellulose (CMC) 97 % of control | dose: 10.0 mg/kg/injection, schedule: Q01DX001 (ip), vehicle: carboxymethylcellulose (CMC) 100 % of control | dose: 20.0 mg/kg/injection, schedule: Q01DX001 (ip), vehicle: carboxymethylcellulose (CMC) 88 % of control | dose: 40.0 mg/kg/injection, schedule: Q01DX001 (ip), vehicle: carboxymethylcellulose (CMC) 103 % of control

COc1ccc(C2C3CCC(C3)C2N)cc1 (configuration not stated)
inactive: dose: 5.0 mg/kg/injection, schedule: Q04DX003 (ip), vehicle: saline 100 % of control | dose: 10.0 mg/kg/injection, schedule: Q01DX009 (ip), vehicle: saline with Tween-80 93 % of control | dose: 10.0 mg/kg/injection, schedule: Q04DX003 (ip), vehicle: saline 100 % of control and 97 % of control | dose: 20.0 mg/kg/injection, schedule: Q01DX009 (ip), vehicle: saline with Tween-80 91 % of control | dose: 20.0 mg/kg/injection, schedule: Q04DX003 (ip), vehicle: saline 97 % of control | [12] 90 % of control | dose: 40.0 mg/kg/injection, schedule: Q04DX003 (ip), vehicle: saline 96 % of control | [13] 95 % of control | [14] 88 % of control | [7] 100 % of control

COCOc1ccc(-c2ccc(O)cc2)cc1
inactive: [7] 91 % of control | [8] 91 % of control | [9] 94 % of control

CCC(C)(C1CCC(O)CC1)C1CCC(O)CC1 (configuration not stated)
inactive: [1] 94 % of control | [3] 96 % of control | [5] 98 % of control

CCOC(=S)Nc1ccccc1
inactive: [10] 103 % of control | [11] 90 % of control | dose: 400.0 mg/kg/injection, schedule: Q04DX002 (ip), vehicle: Klucel (hydroxypropylcellulose) (HPC) 107 % of control

O=C(C1C2CCC(CC2)C1C(=O)N1CCOCC1)N1CCOCC1 (configuration not stated)
inactive: [2] 100 % of control | [4] 100 % of control | [6] 103 % of control

C=CCN1C(=O)C(CCCCCCCCCCCC)C(=O)NC1=S (configuration not stated)
inactive: dose: 75.0 mg/kg/injection, schedule: Q01DX001 (ip), vehicle: other 101 % of control | dose: 150.0 mg/kg/injection, schedule: Q01DX001 (ip), vehicle: other 95 % of control | dose: 300.0 mg/kg/injection, schedule: Q01DX001 (ip), vehicle: other 90 % of control

CN(C1=NS(=O)(=O)N=C(N(C)c2ccccc2)O1)c1ccccc1
inactive: dose: 100.0 mg/kg/injection, schedule: Q04DX003 (ip), vehicle: Klucel (hydroxypropylcellulose) (HPC) 102 % of control | dose: 200.0 mg/kg/injection, schedule: Q04DX003 (ip), vehicle: Klucel (hydroxypropylcellulose) (HPC) 102 % of control | dose: 400.0 mg/kg/injection, schedule: Q04DX003 (ip), vehicle: Klucel (hydroxypropylcellulose) (HPC) 98 % of control

O=C(O)c1ccccc1C(=O)c1ccc(F)cc1
inactive: [1] 96 % of control | [3] 102 % of control | [5] 93 % of control

CCCCCCCCCC(C)CCCC (configuration not stated)
inactive: dose: 100.0 mg/kg/injection, schedule: Q01DX001 (ip), vehicle: saline with Tween-80 86 % of control | dose: 200.0 mg/kg/injection, schedule: Q01DX001 (ip), vehicle: saline with Tween-80 96 % of control

COc1ccc(-n2c(=O)c(N=Nc3ccc(Cl)cc3)c(O)n(-c3ccc(C)cc3)c2=S)cc1
inactive: dose: 37.5 mg/kg/injection, schedule: Q01DX001 (ip), vehicle: Klucel (hydroxypropylcellulose) (HPC) 92 % of control | dose: 75.0 mg/kg/injection, schedule: Q01DX001 (ip), vehicle: Klucel (hydroxypropylcellulose) (HPC) 92 % of control | dose: 150.0 mg/kg/injection, schedule: Q01DX001 (ip), vehicle: Klucel (hydroxypropylcellulose) (HPC) 91 % of control

CCOC(=O)CN(C)c1ccccc1
inactive: dose: 50.0 mg/kg/injection, schedule: Q01DX001 (ip), vehicle: carboxymethylcellulose (CMC) 104 % of control | dose: 100.0 mg/kg/injection, schedule: Q01DX001 (ip), vehicle: carboxymethylcellulose (CMC) 107 % of control | dose: 200.0 mg/kg/injection, schedule: Q01DX001 (ip), vehicle: carboxymethylcellulose (CMC) 93 % of control | dose: 400.0 mg/kg/injection, schedule: Q01DX001 (ip), vehicle: carboxymethylcellulose (CMC) 107 % of control

NC(=O)CSc1cc(Cl)c(Cl)cc1Cl
inactive: dose: 50.0 mg/kg/injection, schedule: Q04DX003 (ip), vehicle: saline with Tween-80 103 % of control | [7] 106 % of control | [8] 90 % of control

NC(=O)CC(NC(=O)CCl)C(=O)O (configuration not stated)
inactive: [14] 104 % of control | [15] 87 % of control | [16] 86 % of control

Brc1n[nH]nc1Br
inactive: [7] 98 % of control | [8] 104 % of control | [9] 101 % of control

COC(CCC#N)c1ccccc1 (configuration not stated)
inactive: [14] 97 % of control | [7] 105 % of control | [15] 100 % of control | [8] 97 % of control | [16] 101 % of control | [9] 102 % of control

Cc1ccc([N+](=O)[O-])cc1NC(=O)SCCOC(=O)COc1ccc(Cl)cc1
inactive: [13] 97 % of control | [14] 97 % of control and 106 % of control | [15] 103 % of control

CCOC(=O)C1c2cccc(O)c2C=CN1C(C)=O (configuration not stated)
inactive: [2] 101 % of control | [4] 97 % of control | [6] 104 % of control

O=C1OC(=O)c2c1cccc2[N+](=O)[O-]
inactive: [12] 97 % of control | [13] 90 % of control | [14] 94 % of control and 88 % of control

NC(=O)c1[nH]cnc1/N=N/N(CCO)CCO
inactive: dose: 50.0 mg/kg/injection, schedule: Q01DX001 (ip), vehicle: water 102 % of control | dose: 50.0 mg/kg/injection, schedule: Q04DX003 (ip), vehicle: water 100 % of control | dose: 100.0 mg/kg/injection, schedule: Q01DX001 (ip), vehicle: water 97 % of control | [14] 105 % of control | [7] 101 % of control | dose: 100.0 mg/kg/injection, schedule: Q04DX003 (ip), vehicle: water 101 % of control | dose: 200.0 mg/kg/injection, schedule: Q01DX001 (ip), vehicle: water 103 % of control | [15] 105 % of control | [8] 101 % of control | dose: 200.0 mg/kg/injection, schedule: Q04DX003 (ip), vehicle: water 100 % of control | dose: 400.0 mg/kg/injection, schedule: Q01DX001 (ip), vehicle: water 101 % of control | [16] 100 % of control | [9] 98 % of control | dose: 400.0 mg/kg/injection, schedule: Q04DX003 (ip), vehicle: water 101 % of control

COc1ccc(OC)c(NC(=O)Oc2ccc3ccccc3c2)c1
inactive: dose: 100.0 mg/kg/injection, schedule: Q04DX002 (ip), vehicle: saline 93 % of control | dose: 200.0 mg/kg/injection, schedule: Q04DX002 (ip), vehicle: saline 101 % of control | dose: 400.0 mg/kg/injection, schedule: Q04DX002 (ip), vehicle: saline 96 % of control

ClC1=C(Cl)C2(Cl)C3C4CC(CC4Cl)C3C1(Cl)C2(Cl)Cl (configuration not stated)
inactive: dose: 75.0 mg/kg/injection, schedule: Q01DX001 (ip), vehicle: steriod suspending solution 93 % of control | dose: 150.0 mg/kg/injection, schedule: Q01DX001 (ip), vehicle: steriod suspending solution 90 % of control | dose: 300.0 mg/kg/injection, schedule: Q01DX001 (ip), vehicle: steriod suspending solution 98 % of control
